Experimental data published in patent US8575091B1, “Amylin analogues and pharmaceutical compositions thereof” (Novo Nordisk A/S, priority 2012, dated 2013).
Numbered stars: 1 amine (or outer) side, 2 acyl side, 3 side chain; on linkers, the order of the positions; unused ones are H or OH. Bridge positions count the residues as written; N and C are the ends. Side chains are listed from the residue outwards. Peptide text beside a SMILES is read from it. * marks the point of attachment. C20 diacid = O=C(O)CCCCCCCCCCCCCCCCCCC(=O)*; γGlu = O=C(O)[C@H](CCC(=O)[*:2])N[*:1]

Target: T1, human amylin receptor (amylin 3(a) receptor: human calcitonin receptor + RAMP-3) (Homo sapiens, UniProt O60896+P30988)
T1 construct: expressed in transfected cells
T1 sequence (P30988 25-474): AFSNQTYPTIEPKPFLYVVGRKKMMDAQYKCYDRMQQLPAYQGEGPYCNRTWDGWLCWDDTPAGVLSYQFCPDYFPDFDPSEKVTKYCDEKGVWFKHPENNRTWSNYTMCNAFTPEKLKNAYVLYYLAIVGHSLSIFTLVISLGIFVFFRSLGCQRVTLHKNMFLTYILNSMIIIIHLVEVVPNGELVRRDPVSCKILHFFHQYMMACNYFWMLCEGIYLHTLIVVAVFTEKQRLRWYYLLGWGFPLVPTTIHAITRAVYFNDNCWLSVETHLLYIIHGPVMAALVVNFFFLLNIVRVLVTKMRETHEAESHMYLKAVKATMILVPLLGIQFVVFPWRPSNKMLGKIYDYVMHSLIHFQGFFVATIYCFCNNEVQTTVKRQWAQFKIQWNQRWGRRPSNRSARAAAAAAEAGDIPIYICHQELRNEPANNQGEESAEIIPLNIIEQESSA
T1 sequence (O60896 24-148 partner): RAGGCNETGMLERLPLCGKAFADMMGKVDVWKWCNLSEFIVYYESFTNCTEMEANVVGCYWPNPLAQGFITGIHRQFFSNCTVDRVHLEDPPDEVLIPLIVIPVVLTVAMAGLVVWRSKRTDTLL
Test: Assay (II)a functional assay, human amylin receptor (CRE luciferase, BHK cells)
Type: cell-based

[1] = Table 6, human functional selectivity (hCTR EC50 / hAmylin-R EC50)
[2] = Table 6a, human functional selectivity (hCTR EC50 / hAmylin-R EC50), at least 5
[3] = Table 6j, hCTR funct. EC50 / hAmylin-R funct. EC50
[4] = Table 6k, hCTR funct. EC50 / hAmylin-R funct. EC50
[5] = Table 6i, hCTR funct. EC50 / hAmylin-R funct. EC50

Compound | Ratio hCT/hAmylin funct. [1] | Ratio hCT/hAmylin funct. [2] | Ratio hCT/hAmylin funct. [3] | Ratio hCT/hAmylin funct. [4] | Ratio hCT/hAmylin funct. [5]
CC[C@H](C)[C@H](NC(=O)[C@H](C)NC(=O)CNC(=O)[C@H](Cc1ccccc1)NC(=O)[C@H](CC(N)=O)NC(=O)[C@@H]1CCCN1C(=O)[C@H](CO)NC(=O)[C@H](CO)NC(=O)[C@H](Cc1c[nH]cn1)NC(=O)[C@H](CCCNC(=N)N)NC(=O)[C@H](CC(C)C)NC(=O)[C@H](Cc1ccccc1)NC(=O)[C@H](CC(N)=O)NC(=O)[C@H](C)NC(=O)[C@H](CC(C)C)NC(=O)[C@H](CCCNC(=N)N)NC(=O)[C@H](CCC(N)=O)NC(=O)[C@@H](NC(=O)[C@H](C)NC(=O)[C@@H]1CSSC[C@H](NC(=O)[C@@H](N)CCCCNC(=O)CC[C@H](NC(=O)CCCCCCCCCCCCCCCCCCC(=O)O)C(=O)O)C(=O)N[C@@H](CC(N)=O)C(=O)N[C@@H]([C@@H](C)O)C(=O)N[C@@H](C)C(=O)N[C@@H]([C@@H](C)O)C(=O)N1)[C@@H](C)O)C(=O)N1CCC[C@H]1C(=O)N[C@@H](CO)C(=O)N[C@@H](CO)C(=O)N[C@H](C(=O)N[C@@H](CC(N)=O)C(=O)N[C@H](C(=O)NCC(=O)N[C@@H](CO)C(=O)N[C@@H](CC(N)=O)C(=O)N[C@H](C(=O)N[C@@H](Cc1ccc(O)cc1)C(N)=O)[C@@H](C)O)C(C)C)[C@@H](C)O [Example 48] | 17.0 | 17.0 | 17.0 | 17.0 | –
CC[C@H](C)[C@H](NC(=O)[C@H](C)NC(=O)CNC(=O)[C@H](Cc1ccccc1)NC(=O)[C@H](CC(N)=O)NC(=O)[C@@H]1CCCN1C(=O)[C@H](CO)NC(=O)[C@H](CO)NC(=O)[C@H](Cc1c[nH]cn1)NC(=O)[C@H](CCCNC(=N)N)NC(=O)[C@H](CC(C)C)NC(=O)[C@H](Cc1ccccc1)NC(=O)[C@H](C)NC(=O)[C@H](C)NC(=O)[C@H](CC(C)C)NC(=O)[C@H](CCCNC(=N)N)NC(=O)[C@H](CCC(N)=O)NC(=O)[C@@H](NC(=O)[C@H](C)NC(=O)[C@@H]1CSSC[C@H](NC(=O)[C@H](CCCNC(=N)N)NC(=O)CNC(=O)CC[C@H](NC(=O)CCCCCCCCCCCCCCCCCCC(=O)O)C(=O)O)C(=O)N[C@@H](CC(N)=O)C(=O)N[C@@H]([C@@H](C)O)C(=O)N[C@@H](C)C(=O)N[C@@H]([C@@H](C)O)C(=O)N1)[C@@H](C)O)C(=O)N1CCC[C@H]1C(=O)N[C@@H](CO)C(=O)N[C@@H](CO)C(=O)N[C@H](C(=O)N[C@@H](CC(N)=O)C(=O)N[C@H](C(=O)NCC(=O)N[C@@H](Cc1c[nH]cn1)C(=O)N[C@@H](CC(N)=O)C(=O)N[C@H](C(=O)N[C@@H](Cc1ccc(O)cc1)C(N)=O)[C@@H](C)O)C(C)C)[C@@H](C)O [Example 101] ({C20 diacid-γGlu}-GRCNTATCATQRLAAFLRHSSPNFGAIPSSTNVGHNTY-NH2; disulfide 3-8 (inferred); C-terminus assumed) | 4.9 | – | – | – | –
CC[C@H](C)[C@H](NC(=O)[C@H](C)NC(=O)CNC(=O)[C@H](Cc1ccccc1)NC(=O)[C@H](CC(N)=O)NC(=O)[C@@H]1CCCN1C(=O)[C@H](CO)NC(=O)[C@H](CO)NC(=O)[C@H](Cc1c[nH]cn1)NC(=O)[C@H](CCCNC(=N)N)NC(=O)[C@H](CC(C)C)NC(=O)[C@H](Cc1ccccc1)NC(=O)[C@H](C)NC(=O)[C@H](C)NC(=O)[C@H](CC(C)C)NC(=O)[C@H](CCCNC(=N)N)NC(=O)[C@H](CCC(N)=O)NC(=O)[C@@H](NC(=O)[C@H](C)NC(=O)[C@@H]1CSSC[C@H](NC(=O)[C@@H](N)CCCCNC(=O)CC[C@H](NC(=O)CCCCCCCCCCCCCCCCCCC(=O)O)C(=O)O)C(=O)N[C@@H](CC(N)=O)C(=O)N[C@@H]([C@@H](C)O)C(=O)N[C@@H](C)C(=O)N[C@@H]([C@@H](C)O)C(=O)N1)[C@@H](C)O)C(=O)N1CCC[C@H]1C(=O)N[C@@H](CO)C(=O)N[C@@H](CO)C(=O)N[C@H](C(=O)N[C@@H](CC(N)=O)C(=O)N[C@H](C(=O)NCC(=O)N1CCC[C@H]1C(=O)N[C@@H](CC(N)=O)C(=O)N[C@H](C(=O)N[C@@H](Cc1ccc(O)cc1)C(N)=O)[C@@H](C)O)C(C)C)[C@@H](C)O [Example 94] (H-K([γGlu-C20 diacid])CNTATCATQRLAAFLRHSSPNFGAIPSSTNVGPNTY-NH2; disulfide 2-7; N-terminus assumed) | 4.5 | – | – | – | –
CC[C@H](C)[C@H](NC(=O)[C@H](C)NC(=O)CNC(=O)[C@H](Cc1ccccc1)NC(=O)[C@H](CC(N)=O)NC(=O)[C@@H]1CCCN1C(=O)[C@H](CO)NC(=O)[C@H](CO)NC(=O)[C@H](Cc1c[nH]cn1)NC(=O)[C@H](CCCNC(=N)N)NC(=O)[C@H](CC(C)C)NC(=O)[C@H](Cc1ccccc1)NC(=O)[C@H](CC(N)=O)NC(=O)[C@H](C)NC(=O)[C@H](CC(C)C)NC(=O)[C@H](CCCNC(=N)N)NC(=O)[C@H](CCC(N)=O)NC(=O)[C@@H](NC(=O)[C@H](C)NC(=O)[C@@H]1CSSC[C@H](NC(=O)[C@H](CCCCN)NC(=O)CC[C@H](NC(=O)CCCCCCCCCCCCCCCCCCC(=O)O)C(=O)O)C(=O)N[C@@H](CC(N)=O)C(=O)N[C@@H]([C@@H](C)O)C(=O)N[C@@H](C)C(=O)N[C@@H]([C@@H](C)O)C(=O)N1)[C@@H](C)O)C(=O)N1CCC[C@H]1C(=O)N[C@@H](CO)C(=O)N[C@@H](CO)C(=O)N[C@H](C(=O)N1CCC[C@H]1C(=O)N[C@H](C(=O)NCC(=O)N[C@@H](CO)C(=O)N[C@@H](CCC(=O)O)C(=O)N[C@H](C(=O)N[C@@H](Cc1ccc(O)cc1)C(N)=O)[C@@H](C)O)C(C)C)[C@@H](C)O [Example 28] ({C20 diacid-γGlu}-KCNTATCATQRLANFLRHSSPNFGAIPSSTPVGSETY-NH2; disulfide 2-7) | 9.2 | 9.2 | 9.2 | 9.2 | –
CC[C@H](C)[C@H](NC(=O)[C@H](C)NC(=O)CNC(=O)[C@H](Cc1ccccc1)NC(=O)[C@H](CC(N)=O)NC(=O)[C@@H]1CCCN1C(=O)[C@H](CO)NC(=O)[C@H](CO)NC(=O)[C@H](Cc1c[nH]cn1)NC(=O)[C@H](CCCNC(=N)N)NC(=O)[C@H](CC(C)C)NC(=O)[C@H](Cc1ccccc1)NC(=O)[C@H](CCC(=O)O)NC(=O)[C@H](C)NC(=O)[C@H](CC(C)C)NC(=O)[C@H](CCCNC(=N)N)NC(=O)[C@H](CCC(N)=O)NC(=O)[C@@H](NC(=O)[C@H](C)NC(=O)[C@@H]1CSSC[C@H](NC(=O)[C@@H](N)CCCCNC(=O)CC[C@H](NC(=O)CCCCCCCCCCCCCCCCCCC(=O)O)C(=O)O)C(=O)N[C@@H](CC(N)=O)C(=O)N[C@@H]([C@@H](C)O)C(=O)N[C@@H](C)C(=O)N[C@@H]([C@@H](C)O)C(=O)N1)[C@@H](C)O)C(=O)N1CCC[C@H]1C(=O)N[C@@H](CO)C(=O)N[C@@H](CO)C(=O)N[C@H](C(=O)N[C@@H](CC(N)=O)C(=O)N[C@H](C(=O)NCC(=O)N[C@@H](Cc1c[nH]cn1)C(=O)N[C@@H](CCC(=O)O)C(=O)N[C@H](C(=O)N[C@@H](Cc1ccc(O)cc1)C(N)=O)[C@@H](C)O)C(C)C)[C@@H](C)O [Example 107] (H-K([γGlu-C20 diacid])CNTATCATQRLAEFLRHSSPNFGAIPSSTNVGHETY-NH2; disulfide 2-7 (inferred); N-terminus and C-terminus assumed) | 6.3 | 6.3 | 6.3 | 6.3 | 6.3
CC[C@H](C)[C@H](NC(=O)[C@H](C)NC(=O)CNC(=O)[C@H](Cc1ccccc1)NC(=O)[C@H](CC(N)=O)NC(=O)[C@@H]1CCCN1C(=O)[C@H](CO)NC(=O)[C@H](CO)NC(=O)[C@H](Cc1c[nH]cn1)NC(=O)[C@H](CCCNC(=N)N)NC(=O)[C@H](CC(C)C)NC(=O)[C@H](Cc1ccccc1)NC(=O)[C@H](CCC(=O)O)NC(=O)[C@H](C)NC(=O)[C@H](CC(C)C)NC(=O)[C@H](CCCNC(=N)N)NC(=O)[C@H](CCC(N)=O)NC(=O)[C@@H](NC(=O)[C@H](C)NC(=O)[C@@H]1CSSC[C@H](NC(=O)[C@H](CCCCN)NC(=O)CC[C@H](NC(=O)CCCCCCCCCCCCCCCCCCC(=O)O)C(=O)O)C(=O)N[C@@H](CC(N)=O)C(=O)N[C@@H]([C@@H](C)O)C(=O)N[C@@H](C)C(=O)N[C@@H]([C@@H](C)O)C(=O)N1)[C@@H](C)O)C(=O)N1CCC[C@H]1C(=O)N[C@@H](CO)C(=O)N[C@@H](CO)C(=O)N[C@H](C(=O)N[C@@H](CC(N)=O)C(=O)N[C@H](C(=O)NCC(=O)N[C@@H](Cc1c[nH]cn1)C(=O)N[C@@H](CC(N)=O)C(=O)N[C@H](C(=O)N[C@@H](Cc1ccc(O)cc1)C(N)=O)[C@@H](C)O)C(C)C)[C@@H](C)O [Example 17] ({C20 diacid-γGlu}-KCNTATCATQRLAEFLRHSSPNFGAIPSSTNVGHNTY-NH2; disulfide 2-7) | 8.8 | 8.8 | 8.8 | 8.8 | 8.8
